In brackets after ≈: the same amount, converted by molar mass.
Experiments:
[1] = tested on: Rhizoctonia solani; test: Fungus cake inoculation on pot-cultured seedlings (rice sheath blight); format: in vivo; conditions: for control effect against rice sheath blight (in words): at 200 mg/L concentration; for Control effect (%) Rice sheath blight: concentration 200 mg/L, 5% EC diluted with water containing 1% Tween 80
Procedure: Test Object: Pseudoperonospora cubensis, Rhizoctonia Solani Test design: the compound in a structure expressed by formula (I) (Y14078) and the compound in a structure expressed by formula (II) (Y14079) are prepared with DMF into 5% emulsifiable concentrate (hereafter abbreviated as EC) respectively, and then the EC is diluted with water containing 1% Tween 80 to prepare 200 mg/L formulation. Each process is repeated for 4 times. Test method for Rhizoctonia solani: two pot-cultured seedlings in the same growth state in the true leaf stage are selected, sprayed with the formulation and then dried, and fungus cakes are attached to the leaves with the hypha side facing the leave. The seedlings are kept in a dark environment at 22-26° C. moisturizing for 24 h, and then the natural lighting is recovered, and the seedlings are cultured for about 4 days. After the disease is developed extensively in the control group, the diameter of the disease speckle at each inoculated site is measured with callipers, and the control effect is calculated. 2.

[2] = tested on: Pseudoperonospora cubensis; test: Spore suspension spray inoculation method on pot-cultured cucumber seedlings (cucumber downy mildew); format: in vivo; conditions: for EC50: Pseudoperonospora cubensis, against cucumber downy mildew, from regression of control effect at 6.25-100 mg/L; for control effect against cucumber downy mildew (in words): at 200 mg/L concentration; for Control effect (%) Cucumber downy mildew: concentration 200 mg/L; for Control effect (%) Cucumber downy mildew / Control effect (%): 5% EC diluted with water containing 1% Tween 80; for Control effect (%): cucumber downy mildew, investigated after 5 d
Procedure: Test Object: Pseudoperonospora cubensis Test design: the compound in a structure expressed by formula (I) (Y14078), the compound in a structure expressed by formula (II) (Y14079), and a reference chemical amisulbrom are prepared with DMF into 5% emulsifiable concentrate (hereafter abbreviated as EC) respectively, and then the EC is diluted with water containing 1% Tween 80 to 5 concentration gradients, i.e., 100, 50, 25, 12.5, and 6.25 mg/L. Each process is repeated for 4 times. Test method: the biological activity of the formulation is measured with a spore suspension spray inoculation method. Pot-cultured cucumber seedlings in the same growth state in the 1-leaf and 1-heart stage (with the growing point removed) are selected, sprayed with the formulation, and dried naturally. After 24 h, spores on the back side of the leaf infected by the disease is picked with a writing brush dipped with distilled water, and are prepared into spore suspension (2-3×10^5 spores/ml), the spore suspension is sprayed uniformly with an inoculating sprayer (at 0.1 MPa pressure) to the leaves of cucumbers, and then the inoculated cucumber seedlings are moved into a climatic chamber (relative humidity: 100%, temperature: 20° C., light-dark cycle time: 14 h/10 h) and cultured. After 24 h, the relative humidity is maintained at about 90% for induction; after 5 d, grading and investigation are carried out on the basis of the disease situation of the blank control group, and the control effect (%) is calculated according to the disease severity index. Investigation Method and Grading Criteria: Level 0: free from disease; Level 1: disease speckle area accounts for 5% or less of the total area of the leaf; Level 3: disease speckle area accounts for 6%-10% of the total area of the leaf; Level 5: disease speckle area accounts for 11%-25% of the total area of the leaf; Level 7: disease speckle area accounts for 26%-50% of the total area of the leaf; Level 9: disease speckle area accounts for 50% or more of the total area of the leaf. Effect Calculation: Disease index=Σ(quantity of leaves at all levels×relative level value)×100/(total quantity of leaves×9); Control effect (%)=(disease index of the control group−disease index of treated group)×100/disease index of control group Test design: the compound in a structure expressed by formula (I) (Y14078) and the compound in a structure expressed by formula (II) (Y14079) are prepared with DMF into 5% emulsifiable concentrate (hereafter abbreviated as EC) respectively, and then the EC is diluted with water containing 1% Tween 80 to prepare 200 mg/L formulation. Each process is repeated for 4 times. Test method for Pseudoperonospora cubensis: the biological activity of the formulation is measured with a spore suspension spray inoculation method. Pot-cultured cucumber seedlings in the same growth state in the 1-leaf and 1-heart stage (with the growing point removed) are selected, sprayed with the formulation, and dried naturally. After 24 h, spores on the back side of the leaf infected by the disease is picked with a writing brush dipped with distilled water, and are prepared into spore suspension (2-3×10^5 spores/[…]), the spore suspension is sprayed uniformly with an inoculating sprayer (at 0.1 MPa pressure) to the leaves of cucumbers, and then the inoculated cucumber seedlings are moved into a climatic chamber (relative humidity: 100%, temperature: 20° C., light-dark cycle time: 14 h/10 h) and cultured. After 24 h, the relative humidity is maintained at about 90% for induction; after 5 d, grading and investigation are carried out on the basis of the disease situation of the blank control group, and the control effect (%) is calculated according to the disease severity index. 2. […]

| SMILES | control effect against rice sheath blight (in words) [1] | Control effect (%) Rice sheath blight [1] | melting point | EC50 [2] | control effect against cucumber downy mildew (in words) [2] | Control effect (%) Cucumber downy mildew [2] | Control effect (%) ([2]; concentration 6.25 mg/L) | Control effect (%) ([2]; concentration 12.5 mg/L) | Control effect (%) ([2]; concentration 25 mg/L) | Control effect (%) ([2]; concentration 50 mg/L) | Control effect (%) ([2]; concentration 100 mg/L) |
| --- | --- | --- | --- | --- | --- | --- | --- | --- | --- | --- | --- |
| CN(C)S(=O)(=O)n1cnc(S(=O)(=O)Oc2ccc(Oc3ccccc3)cc2)n1 [Compound Y14079] | good control effect | 67.5% | 141 to 143 °C | 13.6 µg/mL (≈ 32 µM) | especially remarkable | 100% | 31.21% | 47.79% | 59.89% | 85.56% | 94.63% |
| CN(C)S(=O)(=O)n1cnc(S(=O)(=O)Oc2ccc3ccccc3c2Br)n1 [Compound Y14078] | good control effect | 52.5% |  | 12.2 µg/mL (≈ 26.5 µM) | especially remarkable | 100% | 35.56% | 49.97% | 67.27% | 76.24% | 87.58% |

Source: US11166462B2, “Fungicidal compound, fungicide composition and preparation and use thereof” (Zhejiang Udragon Bioscience Co., Ltd., priority 2016, dated 2021)
